Patent publication US20220127247A1, “N-(PYRIDIN-2-YL)PYRIDINE-SULFONAMIDE DERIVATIVES AND THEIR USE IN THE TREATMENT OF DISEASE” (NOVARTIS AG, priority 2019, published 2022)

Biological target: T1, delF508-CFTR (Homo sapiens, UniProt P13569, DEL508-508)
T1 construct: expressed in transfected cells
Experiment: Measurement of delF508-CFTR-HRP surface expression in CFBE41o- cells
Assay type: cell-based
Conditions: for EC50: HRP-tagged delF508-CFTR in CFBE41o- cells, 24 h with compound, luminescence, 10-point curve, top 10 μM; for Emax: efficacy relative to reference compound 3-(6-(1-(2,2-difluorobenzo[d][1,3]dioxol-5-yl)cyclopropane-1-carboxamido)-3-methylpyridin-2-yl)benzoic acid, CFBE41o- cells, 24 h, read-out: DelF508-CFTR-HRP Amax %
Method in brief: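 CFBE41o- cells stably expressing delF508-CFTR with HRP in the fourth extracellular loop, induced with 500 ng/mL doxycycline for 48 h, then treated with compound (top 10 μM, 10-point 3-fold) for 24 h at 37° C. Surface HRP detected by luminescence with cell-impermeant substrate; EC50 from logistic fit of triplicates, normalized to lowest concentration.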

T1 sequence (P13569 with tags, fused parts or gaps DEL508-508): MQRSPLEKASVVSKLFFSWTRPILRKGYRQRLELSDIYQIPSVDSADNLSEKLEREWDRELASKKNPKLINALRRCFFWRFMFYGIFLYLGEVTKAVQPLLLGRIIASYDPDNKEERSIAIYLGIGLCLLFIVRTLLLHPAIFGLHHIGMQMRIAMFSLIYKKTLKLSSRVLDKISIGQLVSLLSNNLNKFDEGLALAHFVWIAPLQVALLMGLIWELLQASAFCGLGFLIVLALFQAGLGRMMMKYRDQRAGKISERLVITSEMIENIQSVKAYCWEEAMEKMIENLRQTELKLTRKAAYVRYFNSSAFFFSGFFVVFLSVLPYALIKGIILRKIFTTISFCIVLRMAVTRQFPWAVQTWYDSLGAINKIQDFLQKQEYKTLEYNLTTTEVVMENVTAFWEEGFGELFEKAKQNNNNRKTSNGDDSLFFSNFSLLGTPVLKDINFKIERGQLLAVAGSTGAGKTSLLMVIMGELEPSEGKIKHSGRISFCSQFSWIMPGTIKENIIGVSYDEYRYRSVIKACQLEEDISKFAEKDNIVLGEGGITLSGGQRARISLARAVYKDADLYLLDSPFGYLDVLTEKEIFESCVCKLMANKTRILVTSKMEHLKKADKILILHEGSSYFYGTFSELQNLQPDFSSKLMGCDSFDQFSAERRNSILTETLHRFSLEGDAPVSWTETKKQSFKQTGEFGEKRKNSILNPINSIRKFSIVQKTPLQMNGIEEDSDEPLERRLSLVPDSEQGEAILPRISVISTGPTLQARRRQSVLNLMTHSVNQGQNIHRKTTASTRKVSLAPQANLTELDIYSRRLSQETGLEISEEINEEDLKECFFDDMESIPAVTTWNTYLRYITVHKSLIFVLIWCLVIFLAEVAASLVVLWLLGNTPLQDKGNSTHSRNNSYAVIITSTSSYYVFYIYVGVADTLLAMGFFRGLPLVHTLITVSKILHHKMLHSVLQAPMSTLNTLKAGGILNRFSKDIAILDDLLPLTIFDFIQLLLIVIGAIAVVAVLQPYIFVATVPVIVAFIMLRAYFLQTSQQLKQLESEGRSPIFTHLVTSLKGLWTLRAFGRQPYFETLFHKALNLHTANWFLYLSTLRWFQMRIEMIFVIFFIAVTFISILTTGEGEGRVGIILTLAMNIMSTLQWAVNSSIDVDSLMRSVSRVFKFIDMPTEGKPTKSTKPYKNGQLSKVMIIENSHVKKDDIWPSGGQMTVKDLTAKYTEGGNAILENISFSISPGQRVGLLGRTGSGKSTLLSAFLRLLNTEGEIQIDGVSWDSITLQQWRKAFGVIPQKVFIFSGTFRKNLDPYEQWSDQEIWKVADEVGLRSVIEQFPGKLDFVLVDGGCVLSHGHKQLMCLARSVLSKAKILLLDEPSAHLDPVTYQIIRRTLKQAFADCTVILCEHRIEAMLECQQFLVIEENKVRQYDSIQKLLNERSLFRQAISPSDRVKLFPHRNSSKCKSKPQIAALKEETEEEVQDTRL

Row | Compound | EC50 [nM] | Emax [%]
1 | CCc1ccc(F)cc1-c1nc(NS(=O)(=O)c2cccc(N(CCC(=O)O)CC3CC3)n2)ccc1C(F)(F)F [Compound 116, 3-((cyclopropylmethyl)(6-(N-(6-(2-ethyl-5-fluorophenyl)-5-(trifluoromethyl)pyridin-2-yl)sulfamoyl)pyridin-2-yl)amino)propanoic Acid] | 1210 | 
2 | Cc1ccccc1-c1nc(NS(=O)(=O)c2cccc(SCCC(=O)O)n2)ccc1C(F)(F)F [Compound 117, 3-((6-(N-(6-(o-tolyl)-5-(trifluoromethyl)pyridin-2-yl)sulfamoyl)pyridin-2-yl)thio)propanoic Acid] | 2430 | 196
3 | CCc1ccc(F)cc1-c1nc(NS(=O)(=O)c2cccc(N(CCC(=O)O)C(C)C)n2)ccc1C(F)(F)F [Compound 119, 3-((6-(N-(6-(2-ethyl-5-fluorophenyl)-5-(trifluoromethyl)pyridin-2-yl)sulfamoyl)pyridin-2-yl)(isopropyl)amino)propanoic Acid] | 1410 | 
4 | CCc1ccccc1-c1nc(NS(=O)(=O)c2cccc(OC3CCC(C(=O)O)CC3)n2)ccc1C(F)(F)F (stereo not drawn) [Compound 120, 4-((6-(N-(6-(2-ethylphenyl)-5-(trifluoromethyl)pyridin-2-yl)sulfamoyl)pyridin-2-yl)nxy)cyclohexane-1-carboxylic Acid] | 1390 | 330
5 | Cc1ccccc1-c1nc(NS(=O)(=O)c2cccc(OCCC(=O)O)n2)ccc1C(F)(F)F [Compound 121, 3-((6-(N-(6-(o-tolyl)-5-(trifluoromethyl)pyridin-2-yl)sulfamoyl)pyridin-2-yl)nxy)propanoic Acid] | 3280 | 167
6 | Cc1cccc(C)c1-c1nc(NS(=O)(=O)c2cccc(N3CCC[C@H]3c3nnn[nH]3)n2)ccc1Cl [Compound 124, (S)-6-(2-(1H-tetrazol-5-yl)pyrrolidin-1-yl)-N-(5-chloro-6-(2,6-dimethylphenyl)pyridin-2-yl)pyridine-2-sulfonamide] | 1730 | 297
7 | Cc1ccccc1-c1nc(NS(=O)(=O)c2cccc(N(C)CC3(C(=O)O)CCCC3)n2)ccc1C(F)(F)F [Compound 130, 1-((methyl(6-(N-(6-(o-tolyl)-5-(trifluoromethyl)pyridin-2-yl)sulfamoyl)pyridin-2-yl)amino)methyl)cyclopentane-1-carboxylic Acid] | 2060 | 403
8 | CCC(NC(=O)C1CCC(Nc2cccc(S(=O)(=O)Nc3ccc(Cl)c(-c4ccccc4C)n3)n2)CC1)C(=O)O (stereo not drawn) [Compound 136, 2-(4-((6-(N-(5-chloro-6-(o-tolyl)pyridin-2-yl)sulfamoyl)pyridin-2-yl)amino)cyclohexane-1-carboxamido)butanoic Acid] | 2310 | 952
9 | Cc1ccccc1-c1nc(NS(=O)(=O)c2cccc(N(C)CC3(C(=O)O)CCC3)n2)ccc1C(F)(F)F [Compound 137, 1-((methyl(6-(N-(6-(o-tolyl)-5-(trifluoromethyl)pyridin-2-yl)sulfamoyl)pyridin-2-yl)amino)methyl)cyclobutane-1-carboxylic Acid] | 2030 | 
10 | Cc1ccc(F)cc1-c1nc(NS(=O)(=O)c2cccc(N(C)CC3(C(=O)O)CCOCC3)n2)ccc1C(F)(F)F [Compound 138, 4-(((6-(N-(6-(5-fluoro-2-methylphenyl)-5-(trifluoromethyl)pyridin-2-yl)sulfamoyl)pyridin-2-yl)(methyl)amino)methyl)tetrahydro-2H-pyran-4-carboxylic Acid] | 1980 | 463
11 | Cc1ccc(F)cc1-c1nc(NS(=O)(=O)c2cccc(N(C)CC3(C(=O)O)CCC3)n2)ccc1C(F)(F)F [Compound 139, 1-(((6-(N-(6-(5-fluoro-2-methylphenyl)-5-(trifluoromethyl)pyridin-2-yl)sulfamoyl)pyridin-2-yl)(methyl)amino)methyl)cyclobutane-1-carboxylic Acid] | 1120 | 
